In article PMC11802822, “Comprehensive safety and toxicity analysis of 2,2’-Bipyridine derivatives in combating MRSA biofilm formation and persistence” (Frontiers in Cellular and Infection Microbiology, 2025):
In brackets after ≈: the same amount, converted by molar mass.

Tests used:
MRSA 831 [1] = experiment: Biofilm imaging by confocal laser scanning microscopy (SYTO 9/PI); assay type: cell-based, methicillin-resistant S. aureus; conditions: derivatives 100 µg/ml, 24 h
Source text: Untreated wells were used as a control. […] Using SYTO 9 and PI dyes. […] Two independent experiments were done in triplicate.

MRSA 831 [2] = experiment: Broth microdilution MIC; conditions: Staphylococcus aureus, MRSA, 18 h, read-out: Minimum inhibitory concentration
MTCC 737 [3] = experiment: Biofilm imaging by confocal laser scanning microscopy (SYTO 9/PI); conditions: derivatives 100 µg/ml, 24 h
MTCC 737 persister cells = experiment: Persister killing assay; assay type: cell-based, Staphylococcus aureus; conditions: S. aureus persisters
Protocol: To evaluate the persister-killing activity of 2,2’-Bipy derivatives, MTCC 737 and MRSA 831 cells were grown overnight to the stationary phase at 37°C ([Kim et al., 2018b]). […] The bacterial densities of persisters were recorded at OD600 at hourly intervals from 0 to 6 h.

S. aureus (MTCC737) [4] = experiment: Broth microdilution MIC; conditions: Staphylococcus aureus, MTCC737, 18 h, read-out: Minimum inhibitory concentration
MTCC 737 [5] = experiment: Transmission electron microscopy; conditions: S. aureus MTCC 737; 100 µg/ml, 12 h
MTCC 737 [6] = experiment: Neutropenic thigh infection model in mice; assay type: in vivo, Staphylococcus aureus; conditions: neutropenic BALB/c mice, MTCC 737 10^6 CFU/ml, oral 30 mg/kg, 48 h, vs untreated group
red blood cells = conditions: ref Chen et al., 2011; Papalia et al., 2021; cited from earlier work
MRSA 831 [7] = experiment: Neutropenic thigh infection model in mice; conditions: neutropenic BALB/c mice, MRSA 831 10^8 CFU/ml, oral 30 mg/kg, after 2 h and 24 h, vs untreated control
MRSA 831 (MRSA) = experiment: Agar well diffusion; conditions: Staphylococcus aureus, MRSA
S. aureus (MTCC737) [8] = experiment: Agar well diffusion; conditions: Staphylococcus aureus, MTCC737
MRSA 831 [9] = experiment: Transmission electron microscopy; conditions: 100 µg/ml, 12 h

CN[C@H](CC(C)C)C(=O)N[C@H]1C(=O)N[C@@H](CC(N)=O)C(=O)N[C@H]2C(=O)N[C@H]3C(=O)N[C@H](C(=O)N[C@H](C(=O)O)c4cc(O)cc(O)c4-c4cc3ccc4O)[C@H](O)c3ccc(c(Cl)c3)Oc3cc2cc(c3O[C@@H]2O[C@H](CO)[C@@H](O)[C@H](O)[C@H]2O[C@H]2C[C@](C)(N)[C@H](O)[C@H](C)O2)Oc2ccc(cc2Cl)[C@H]1O [Vancomycin, reference compound]
Biofilm disruption (CLSM) (MRSA 831 [1]): effective biofilm disruption and severe cell damage | MIC (MRSA 831 [2]): 6.25 µg/mL (≈ 4.31 µM) | Biofilm disruption (CLSM) (MTCC 737 [3]): effective biofilm disruption and severe cell damage | Concentration showing similar activity on persister cell counts (MTCC 737 persister cells): 100 µg/mL | MIC (S. aureus (MTCC737) [4]): 6.25 µg/mL (≈ 4.31 µM) | Cell morphology (TEM) (MTCC 737 [5]): distorted morphology | Reduction in the bacterial load in thigh tissue (MTCC 737 [6]): approximately 1.9 log10 | Concentration up to which non-hemolytic (red blood cells): up to 32 µg/ml | Reduction in the bacterial load in thigh tissue (MRSA 831 [7]): approximately 1.9 log10 | zone of inhibition at 50 µg/mL (MRSA 831 (MRSA)): 12 mm | zone of inhibition at 50 µg/mL (S. aureus (MTCC737) [8]): 14 mm | Cell morphology (TEM) (MRSA 831 [9]): distorted morphology
